# Measurements as given in patent publication US20040248801A1, “Methods and reagents for regulation of cellular responses in biological systems” (priority 2000, published 2004).
# Tests used:
# [1] = biological target: glucose/galactose-binding protein (GGBP) (Escherichia coli, UniProt P0AEE5); experiment: in vitro binding assay with purified GGBP
# From the text: The molecular events leading to bacterial chemotaxis have been well studied, and the process has served as a general model for receptor-mediated responses. During chemotaxis in Escherichia coli, chemoattractants, such as sugars and amino acids, and chemorepellents are recognized by specific receptors at the bacterial plasma membrane. For these investigations of multivalent ligand activity, galactose was selected as a model chemoattractant. […] For galactose-mediated signaling, the saccharide must bind to the soluble periplasmic glucose/galactose-binding protein (GGBP), which, in turn, interacts with the galactose-sensing chemoreceptor, Trg. Galactose-GGBP binding to Trg initiates a signaling pathway that results in reversal of the direction of flagellar spin, allowing the bacteria to swim towards the nutrient.
# Galactose-bearing ligands 1-4 of varying defined valencies were generated using ROMP methods (Scheme 1). The galactose residues in the multivalent ligands are tethered to the molecular scaffold (polymer backbone) via a short linker.
# [2] = system: E. coli AW405; experiment: video microscopy motion analysis of bacteria; format: cell-based, Escherichia coli; conditions: first 5-15 seconds after addition of attractant
# Procedure: FIG. 2A: Results of video microscopy motion analysis experiments. Bacteria (Escherichia coli) were treated with buffer alone, galactose, or compound 1 or 3 (Scheme 1) at the indicated saccharide concentrations. The results represent the average from at least five independent experiments performed in triplicate. Error bars represent the deviation between per-second averages during the ten second interval.
# Ligands functionalized with galactose such as monovalent ligand 1 and multivalent ligand 3, also serve as attractants in vivo. […] To observe the effects of synthetic ligands on tumbling frequency, E. coli were treated with galactose or galactose-bearing ligands, and bacterial motion was recorded and analyzed using the method of Sager et al.. The tumbling frequency was assessed by averaging the mean angular velocity of the paths obtained in the first 5-15 seconds after addition of attractant (FIG. 2A). […]
# Partially permeabilized bacteria (25 μM EDTA for 3 min. at room temperature, then quench with 50 μM CaCl2) at an OD550 of 0.1 were placed under a cover slip supported by additional cover slips in the method of Sager et al.. […] The bacterial motion at 28° C. was recorded, and the paths were analyzed using the ExpertVision system. Paths derived from the first 5 to 15 seconds following the introduction of attractant were analyzed. […] Data were analyzed using the Q and Students tests.
# glucose/galactose-binding protein (GGBP), sequence (P0AEE5 24-332 limits assumed): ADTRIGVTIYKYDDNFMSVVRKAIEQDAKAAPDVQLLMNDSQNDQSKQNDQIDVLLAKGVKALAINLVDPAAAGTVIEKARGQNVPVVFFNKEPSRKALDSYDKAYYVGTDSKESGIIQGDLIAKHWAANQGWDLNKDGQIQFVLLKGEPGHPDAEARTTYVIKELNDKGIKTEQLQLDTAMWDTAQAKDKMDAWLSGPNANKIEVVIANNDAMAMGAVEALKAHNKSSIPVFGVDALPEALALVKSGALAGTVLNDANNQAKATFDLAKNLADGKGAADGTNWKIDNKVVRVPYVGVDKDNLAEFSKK
compound,measurement,setting,value
O=C(NCCOC1OC(CO)C(O)C(O)C1O)C1C[C@@H]2C=CC1C2 (some centres unmarked) [Compound 1],interaction with purified GGBP compared with galactose,[1],at least as favorable as that of galactose
same,mean angular velocity (tumbling frequency) after addition of attractant,[2],produced similar effects to that of the free chemoattractant
